Laboratory results published in publication PMC8384862, “Identification of new target proteins of a Urotensin-II receptor antagonist using transcriptome-based drug repositioning approach” (Scientific Reports, 2021).
Where a name gives a salt, the structure may show the parent alone.

Molecular target: T1, sodium-dependent serotonin transporter (Homo sapiens, UniProt P31645)
T1 construct: gene SLC6A4; human recombinant, CHO cell membrane
Experiment: radioligand displacement of [3H]imipramine on recombinant CHO cell membranes, single dose […]
Type: binding

T1 sequence (P31645 whole entry): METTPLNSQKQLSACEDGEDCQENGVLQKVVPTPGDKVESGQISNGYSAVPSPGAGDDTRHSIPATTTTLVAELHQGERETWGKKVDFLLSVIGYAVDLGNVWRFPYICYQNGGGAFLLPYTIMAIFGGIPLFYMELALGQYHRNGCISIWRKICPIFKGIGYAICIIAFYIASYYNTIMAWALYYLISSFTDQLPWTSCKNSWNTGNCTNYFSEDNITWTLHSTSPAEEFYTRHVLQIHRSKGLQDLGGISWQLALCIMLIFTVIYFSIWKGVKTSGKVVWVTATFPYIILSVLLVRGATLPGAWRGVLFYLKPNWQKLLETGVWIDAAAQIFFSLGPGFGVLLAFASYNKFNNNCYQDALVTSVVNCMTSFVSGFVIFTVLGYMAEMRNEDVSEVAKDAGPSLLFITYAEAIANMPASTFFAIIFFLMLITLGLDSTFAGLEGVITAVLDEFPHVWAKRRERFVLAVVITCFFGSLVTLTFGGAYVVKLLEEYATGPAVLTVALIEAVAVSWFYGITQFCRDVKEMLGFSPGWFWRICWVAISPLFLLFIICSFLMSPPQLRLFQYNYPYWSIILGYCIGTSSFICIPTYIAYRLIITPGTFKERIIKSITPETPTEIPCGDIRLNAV

## CN(C)c1cccc(NC(=O)N2CCN(Cc3ccc(OC4CCNCC4)c(Br)c3)CC2)c1 [KR-37524, 4-(3-bromo-4-(piperidin-4-yloxy)benzyl)-N-(3-(dimethylamino)phenyl)piperazine-1-carboxamide dihydrochloride]
  inhibition at 10 µM: > 50%
